For data set [1], the system named is tetracysteine-tagged protein. As to the kind of experiment: Binding/labeling of tetracysteine-tagged protein by bis-arsenical dyes (MALDI-MS). To be noted: for binding to tetracysteine-tagged protein: MALDI-MS, canonical tetracysteine tag.
The subject of a further data set is HeLa cells. As to the kind of experiment: Intracellular staining of mammalian tissue culture cells (HeLa) with bis-arsenical dyes. Format: cell-based. The following applies: absence of tetracysteine-tagged proteins and thiol competitors.
In a further data set the test system is mice. The following applies: cited from earlier work.
The next data set has as its target tetracysteine tag. To be noted: FlAsH / tetracysteine tag; Adams et al. 2002; read-out: dissociation constant; cited from earlier work.
Data set [2] relates to tetracysteine-tagged firefly luciferase. As to the kind of experiment: BRET from tetracysteine-tagged firefly luciferase constructs to ReAsH. Format: biochemical. To be noted: for BRET: to ReAsH, purified TC-tagged luciferase constructs, Table 1; for efficiency of BRET (apparent): treatment with ReAsH. From the text: Firefly luciferase fusion proteins with an optimized tetracysteine (TC) tag ([…]; SEQ ID NO:1) (Martin et al., Nature Biotechnology, 2005, 23:1308-14) fused onto either the amino (TCLuc1) or carboxy (TCLuc2) terminus of the luciferase protein (Promega's pGL3 (GenBank No. U47295.2)) were cloned and expressed (see list in Table 1). The proteins were expressed in E. Coli as GST fusions, purified by glutathione agarose affinity chromatography, and eluted as the TC-tagged protein by cleavage with PreScission™ protease.
The emission spectrum is sharpened, such that the maximum at 608 nm is actually higher than the 560 nm peak of luciferase (FIG. 3).
To help evaluate the role of distance and orientation on the BRET efficiency, additional N-terminal fusions of the TC tag were constructed (Table 1). […] The best-performing TCLuc1 fusion was cloned into pcDNA3.1 for expression in mammalian tissue culture cells. This construct lacks a C-terminal peroxisomal targeting sequence, and thus the expressed luciferase will localize to the cytoplasm.
(In general: In BRET a luciferase serves as donor, and the signal depends on an acceptor being close.)

“Also recorded” adds a separate entry of the source.

In the case of `O=c1ccc2nc3ccc(O)c([As]4SCCS4)c3oc-2c1[As]1SCCS1` [ReAsH, reference compound], the “binding to tetracysteine-tagged protein” value in data set [1] is “binding”. Also, the intracellular staining result in the data set with HeLa cells is reported as “bright intracellular staining”.

The LD50 is the dose at which mortality reaches 50%. Take `Nc1ccc([As](=O)(O)O)cc1` [arsanilic acid]: the LD50 in the data set with mice (mice) was 248 mg/kg.

For the molecule `CN(Cc1cnc2nc(N)nc(N)c2n1)c1ccc(C(=O)N[C@@H](CCC(=O)O)C(=O)O)cc1` [methotrexate], in the data set on mice (mouse, in vivo), the “LD50 relative to melarsonyl” value is recorded as “two-fold lower LD50 than melarsonyl”.

For the molecule FlAsH [reference compound], the “binding to tetracysteine-tagged protein” value in data set [1] is recorded as “binding”. Besides, on tetracysteine tag, the Kd is roughly 4 pM. In the data set with HeLa cells, the intracellular staining result was “bright intracellular staining”.

Consider bis-arsenical oxazine 170 [As2Ox170], for which, in data set [1], the “fluorescent labeling of tetracysteine-tagged proteins” value is given as “fails to fluorescently label” and the “binding to tetracysteine-tagged protein” value is “fails to bind; also recorded: lack of binding”. In addition, in the data set on HeLa cells, the intracellular staining entry was “intracellular staining; also recorded: highly fluorescent within cells”.

B1: TCLuc2: Firefly luciferase with optimized tetracysteine tag fused at the carboxy terminus, SEQ ID NO:3 (protein)
chain: GPLGSMEDAKNIKKGPAPFYPLEDGTAGEQLHKAMKRYALVPGTIAFTDAHIEVDITYAEYFEMSVRLAEAMKRYGLNTNHRIVVCSENSLQFFMPVLGALFIGVAVAPANDIYNERELLNSMGISQPTVVFVSKKGLQKILNVQKKLPIIQKIIIMDSKTDYQGFQSMYTFVTSHLPPGFNEYDFVPESFDRDKTIALIMNSSGSTGLPKGVALPHRTACVRFSHARDPIFGNQIIPDTAILSVVPFHHGFGMFTTLGYLICGFRVVLMYRFEEELFLRSLQDYKIQSALLVPTLFSFFAKSTLIDKYDLSNLHEIASGGAPLSKEVGEAVAKRFHLPGIRQGYGLTETTSAILITPEGDDKPGAVGKVVPFFEAKVVDLDTGKTLGVNQRGELCVRGPMIMSGYVNNPEATNALIDKDGWLHSGDIAYWDEDEHFFIVDRLKSLIKYKGYQVAPAELESILLQHPNIFDAGVAGLPDDDAGELPAAVVVLEHGKTMTEKEIVDYVASQVTTAKKLRGGVVFVDEVPKGLTGKLDARKIREILIKAKKGGKIAVFLNCCPGCCMEP
Turning to B1, in data set [2], the BRET was roughly 50% and the “efficiency of BRET (apparent)” value was “about 50%”.

B2: TCLuc3: N-terminal TC-tagged luciferase with flexible (Gly-Ser)3 repeat spacer, SEQ ID NO:4 (protein)
chain: GPLGSFLNCCPGCCMEPGSGSGSGSMEDAKNIKKGPAPFYPLEDGTAGEQLHKAMKRYALVPGTIAFTDAHIEVDITYAEYFEMSVRLAEAMKRYGLNTNHRIVVCSENSLQFFMPVLGALFIGVAVAPANDIYNERELLNSMGISQPTVVFVSKKGLQKILNVQKKLPIIQKIIIMDSKTDYQGFQSMYTFVTSHLPPGFNEYDFVPESFDRDKTIALIMNSSGSTGLPKGVALPHRTACVRFSHARDPIFGNQIIPDTAILSVVPFHHGFGMFTTLGYLICGFRVVLMYRFEEELFLRSLQDYKIQSALLVPTLFSFFAKSTLIDKYDLSNLHEIASGGAPLSKEVGEAVAKRFHLPGIRQGYGLTETTSAILITPEGDDKPGAVGKVVPFFEAKVVDLDTGKTLGVNQRGELCVRGPMIMSGYVNNPEATNALIDKDGWLHSGDIAYWDEDEHFFIVDRLKSLIKYKGYQVAPAELESILLQHPNIFDAGVAGLPDDDAGELPAAVVVLEHGKTMTEKEIVDYVASQVTTAKKLRGGVVFVDEVPKGLTGKLDARKIREILIKAKKGGKIAV
As to B2, in data set [2], the BRET was roughly 50% and the “efficiency of BRET (apparent)” value is “about 50%”.

B3: TCLuc4: N-terminal TC-tagged luciferase with truncated amino acids between tag and luciferase, SEQ ID NO:5 (protein)
chain: GPLGSFLNCCPGCCMEDAKNIKKGPAPFYPLEDGTAGEQLHKAMKRYALVPGTIAFTDAHIEVDITYAEYFEMSVRLAEAMKRYGLNTNHRIVVCSENSLQFFMPVLGALFIGVAVAPANDIYNERELLNSMGISQPTVVFVSKKGLQKILNVQKKLPIIQKIIIMDSKTDYQGFQSMYTFVTSHLPPGFNEYDFVPESFDRDKTIALIMNSSGSTGLPKGVALPHRTACVRFSHARDPIFGNQIIPDTAILSVVPFHHGFGMFTTLGYLICGFRVVLMYRFEEELFLRSLQDYKIQSALLVPTLFSFFAKSTLIDKYDLSNLHEIASGGAPLSKEVGEAVAKRFHLPGIRQGYGLTETTSAILITPEGDDKPGAVGKVVPFFEAKVVDLDTGKTLGVNQRGELCVRGPMIMSGYVNNPEATNALIDKDGWLHSGDIAYWDEDEHFFIVDRLKSLIKYKGYQVAPAELESILLQHPNIFDAGVAGLPDDDAGELPAAVVVLEHGKTMTEKEIVDYVASQVTTAKKLRGGVVFVDEVPKGLTGKLDARKIREILIKAKKGGKIAV
As to B3, in data set [2], the BRET result is on record as “quenches” and the “efficiency of BRET (apparent)” value is on record as “quenching of luciferase emission”.

B4: TCLuc5: N-terminal TC-tagged Δ2-luciferase, truncated, SEQ ID NO:6 (protein)
chain: GPLGSFLNCCPGCCDAKNIKKGPAPFYPLEDGTAGEQLHKAMKRYALVPGTIAFTDAHIEVDITYAEYFEMSVRLAEAMKRYGLNTNHRIVVCSENSLQFFMPVLGALFIGVAVAPANDIYNERELLNSMGISQPTVVFVSKKGLQKILNVQKKLPIIQKIIIMDSKTDYQGFQSMYTFVTSHLPPGFNEYDFVPESFDRDKTIALIMNSSGSTGLPKGVALPHRTACVRFSHARDPIFGNQIIPDTAILSVVPFHHGFGMFTTLGYLICGFRVVLMYRFEEELFLRSLQDYKIQSALLVPTLFSFFAKSTLIDKYDLSNLHEIASGGAPLSKEVGEAVAKRFHLPGIRQGYGLTETTSAILITPEGDDKPGAVGKVVPFFEAKVVDLDTGKTLGVNQRGELCVRGPMIMSGYVNNPEATNALIDKDGWLHSGDIAYWDEDEHFFIVDRLKSLIKYKGYQVAPAELESILLQHPNIFDAGVAGLPDDDAGELPAAVVVLEHGKTMTEKEIVDYVASQVTTAKKLRGGVVFVDEVPKGLTGKLDARKIREILIKAKKGGKIAV
In the case of B4, in data set [2], the BRET entry was “inactive” and the “efficiency of BRET (apparent)” value is reported as “complete loss of luciferase activity”.

B5: TCLuc1: Firefly luciferase with optimized tetracysteine tag fused at the amino terminus, SEQ ID NO:2 (protein)
chain: GPLGSFLNCCPGCCMEPGSMEDAKNIKKGPAPFYPLEDGTAGEQLHKAMKRYALVPGTIAFTDAHIEVDITYAEYFEMSVRLAEAMKRYGLNTNHRIVVCSENSLQFFMPVLGALFIGVAVAPANDIYNERELLNSMGISQPTVVFVSKKGLQKILNVQKKLPIIQKIIIMDSKTDYQGFQSMYTFVTSHLPPGFNEYDFVPESFDRDKTIALIMNSSGSTGLPKGVALPHRTACVRFSHARDPIFGNQIIPDTAILSVVPFHHGFGMFTTLGYLICGFRVVLMYRFEEELFLRSLQDYKIQSALLVPTLFSFFAKSTLIDKYDLSNLHEIASGGAPLSKEVGEAVAKRFHLPGIRQGYGLTETTSAILITPEGDDKPGAVGKVVPFFEAKVVDLDTGKTLGVNQRGELCVRGPMIMSGYVNNPEATNALIDKDGWLHSGDIAYWDEDEHFFIVDRLKSLIKYKGYQVAPAELESILLQHPNIFDAGVAGLPDDDAGELPAAVVVLEHGKTMTEKEIVDYVASQVTTAKKLRGGVVFVDEVPKGLTGKLDARKIREILIKAKKGGKIAV
Regarding B5, in data set [2], the BRET is roughly 80% and the “efficiency of BRET (apparent)” value is “about 80%”.

The values are drawn from patent US20080299592A1, “Red-Shifted Luciferase” (priority 2007, published 2008).
